| Compound | melting point |
| --- | --- |
| CCCN1CC(CSC)=C[C@H]2Cc3n[nH]cc3C[C@@H]21 (relative stereo) | 133 to 134 °C |
| CC1(C)CC1C(=O)NC(=CCCCSc1ncccc1O)C(=O)O (centres undefined) | > 70 °C |
| OCCCNc1cc(-n2cccn2)nc(-c2cccs2)n1 | 130 to 131 °C |
| CC(NC(=S)Nc1ccc(N2CCCCC2)nc1)C(C)(C)C (centres undefined) | 151 to 153 °C |
| C#CCN(CC#C)c1ccc(Cl)c(Cl)c1 | 48 to 50 °C |
| Cc1cc2c(cc1Cl)C=C(C(=O)O)C(C(F)(F)F)O2 (centres undefined) | 208 to 209 °C |
| Cc1cc(N(C)[C@H]2CN(C(=O)CC#N)CC[C@H]2C)n2ncnc2n1 | 119 °C |
| CN1CCC(c2cc3cccc(O)c3o2)CC1 | 144 to 146 °C |
| COc1c(N2CC(C)(N)C3(CC3)C2)c(F)cc2c(=O)c(C(=O)O)cn([C@@H]3C[C@@H]3F)c12 (some centres undefined) | 195 to 200 °C |
| CC(C)C1C(=O)N(COC(=O)c2c(Cl)cccc2Cl)S(=O)(=O)N1C (centres undefined) | 70 to 71.5 °C |
| COc1cc(C)c(O)c(CCCCCCCCCCO)n1 | 80 to 81 °C |
| COCCOC(=O)C1=C(C)NC(C)=C(C(=O)OC(C)C)C1c1ccsc1Cl (centres undefined) | 123 to 124 °C |
| CCN1CCCC1CNC(=O)c1nc(NC)sc1-c1ccncc1 (centres undefined) | 76 to 78 °C |
| CCOC1=CC2=CCC3C4CCC(=O)C4(C)CCC3C2(C)CC1 (centres undefined) | 146 to 149 °C |
| C=CCOC(=O)c1ccc(N=C(OC)c2ccc(OC)c(C34CC5CC(CC(C5)C3)C4)c2)cc1 | 85 to 87 °C |
| Cn1c(=O)c2c(ncn2CCCCCCO)n(C)c1=O | 80 °C |
| CC1(C)C(N)CN1c1c(F)cc2c(=O)c(C(=O)O)cn(C3CC3)c2c1F (centres undefined) | 214 to 216 °C |
| CC(C)(C)c1csc(COc2cccc(C(=O)Nc3cc(CCCS(=O)(=O)c4ccc(Cl)cc4)ccc3OCC(N)=O)c2)n1 | 147 to 148 °C |
| CCCCCN1C(=O)C2(COc3cc4c(cc32)OCO4)c2cccnc21 (centres undefined) | 126 to 127 °C |
| CCOC(=O)CCCC1(CCCC(=O)OCC)CC(=O)c2ccc(O)cc2O1 | 108 to 110 °C |
| CC=C1C=C(OC)N=C(N)N1 | 119 to 122 °C |
| CN(C)S(=O)(=O)c1cc(N)c(N)c([N+](=O)[O-])c1 | 211 to 213 °C |
| Cn1nc2c(oc3cc(Cl)ccc32)c1N | 210 to 211 °C |
| CCc1c(OC)cc(/C=C(\SC)S(C)=O)cc1OC (centres undefined) | 82 to 83 °C |
| C=C1C(=O)N(C)CCC1(O)c1cccc(OC)c1 (centres undefined) | 127 to 128 °C |
| COc1ccc(S(=O)(=O)C(C)(Cc2ccc(OCCN3CCCCC3)cc2)C(=O)NO)cc1 (centres undefined) | 98 °C |

| Compound | melting point |
| --- | --- |
| COc1cc(OC)cc(C2CC=CCC2=O)c1 (centres undefined) | 60 to 62 °C |
| O=Cc1c(Cl)nc2n(c1=O)CCS2 | 152 to 154 °C |
| COC(=O)C1=C(C)NC(C)=C(C(=O)OC)C1c1cccc(NC(=S)NNC(=O)CN2CCC(c3cccc(OC)c3)CC2)c1 | 113 to 116 °C |
| CC(O)(c1ccc(F)cc1)C1CCN(CC2CC(c3ccc4[nH]c(=O)oc4c3)=NO2)CC1 (centres undefined) | 125 to 134 °C |
| Cc1cc(=O)[nH]c2c1C(=O)CCC2 | 96 to 97 °C |
| CC(Oc1cccc(Oc2c(Cl)cc(C(F)(F)F)cc2Cl)c1)(C(=O)Cl)[N+](=O)[O-] (centres undefined) | 92 °C |
| OCC1OC(n2cnc3c(NN4CCCC4)nc(I)nc32)C(O)C1O (centres undefined) | 216 to 217 °C |
| N#Cc1ccccc1C1CNC([N+](=O)[O-])CCN1 (centres undefined) | 101 °C |
| O=C1C=CC(=O)N1CO | 96.5 to 97 °C |
| CCCS(=O)(=O)c1ccc2c(c1)C(=O)CC2 | 100 °C |
| CCCCC[C@@H](CNC(=O)Nc1cccc2c1OC(C)(C)C2)c1cccc2c1OCO2 | 161 to 162 °C |
| N#CC(C#N)=C1N(CCCN2CCCCC2)CCN1CCN1CCCC1 | 63 to 64 °C |
| Fc1cccnc1N1CCC2(CC1)COOC2 | 45 to 47 °C |
| Nc1ccn(C2C=CC(CO)O2)c(=O)n1 (centres undefined) | 167 to 169 °C |
| CS(=O)(=O)c1ccc(C(=O)NCc2ccc3c(c2)CN(C2CCC(=O)NC2=O)C3=O)cc1 (centres undefined) | 260 to 262 °C |
| COCCOc1ccc(CCC(=O)NS(=O)(=O)CCC(C)C)c(Oc2ncc(C(F)(F)F)cc2Cl)c1 | 130 to 132 °C |
| CCn1cc(C(=O)O)c(=O)c2c(C)c(F)c(F)c(F)c21 | 203 to 204 °C |
| CCCOc1ccc(S(=O)(=O)N2CCN(CCOC(C)=O)CC2)cc1-c1nc2c(CCCF)cn(CC)c2c(=O)[nH]1 | 134 to 135 °C |
| O=C(c1ccc(-c2ccncn2)cc1)N1CCN(S(=O)(=O)c2cc3cc(Cl)ccc3[nH]2)CC1 | 229 to 230 °C |
| Cc1cc([N+](=O)[O-])cc(C)c1-c1ccc(-c2c(C)cc([N+](=O)[O-])cc2C)o1 | 156 to 158 °C |
| CCOC(=O)C(Br)=NNc1ccc(F)cc1 | 99 to 100 °C |
| CNc1nc(C)c(-c2nc3ccccc3c(=O)n2-c2ccccc2)s1 | 209 to 210 °C |
| Cc1ccc2cc(-c3ccc4c(c3)C(C)(C)CCC4(C)C)ccc2c1 | 173 to 175 °C |
| CCN(CC)C(C)CN1c2cc(Cl)ccc2S[C@H]2[C@@H](O)[C@H](O)[C@@H](CO)O[C@H]21 (some centres undefined) | 185 to 188 °C |
| Cc1nc2[nH]c(=O)[nH]c2cc1-c1ccc(NC(=O)C(F)(F)F)cc1 | > 300 °C |
| N#Cc1ccc(O[C@@H]2c3cccnc3C[C@H]2N2CCC[C@@H](N)C2)c(Cl)c1 | 172 °C |

More lines, now with the values ahead:

| melting point | Compound |
| --- | --- |
| 85 to 87 °C | CN1C(=O)C(c2cccc(Br)c2)(c2ccc(OC(F)F)c(C3CC3)c2)N=C1N (centres undefined) |
| 96 to 98 °C | CC(=O)Nc1ccc(OCCCCCO[N+](=O)[O-])cc1 |
| 208 to 209 °C | Cn1c(-c2ccc([N+](=O)[O-])cc2)nc2ccccc21 |
| 112 to 115 °C | CC1=C(C(=O)OCCCN(C)C)C(c2ccccc2)C2=C(COC2=O)N1 (centres undefined) |
| 173 to 174 °C | COc1ccc(S(=O)(=O)[C@H](CCCCc2ccccc2)[C@H](C(=O)O)C(C)C)cc1OC (relative stereo) |
| 166 to 168 °C | O=C1c2cccc(-c3ccccc3)c2C(=O)C1c1ccccc1 (centres undefined) |
| 122 to 124 °C | CCCn1cc(Cc2ccc(C(=O)OC)cc2OC)c2cc(C=CCC(=O)N(C)C)ccc21 |
| 189 to 191 °C | Cc1ccc(-c2c(CC(=O)O)c(C3CCCCC3)nn2-c2ccccc2)cc1 |
| 175 to 176 °C | CN(C)CC(=O)Nc1c(C(=O)c2ccccc2)[nH]c2cc(Cl)ccc12 |
| 164 to 167 °C | c1cc(Nc2nccc3ccccc23)cc(-n2ccnc2)c1 |
| 186 to 188 °C | COC(=O)c1ccc(C(=O)N2Cc3cccn3Cc3ccccc32)cc1 |
| 175 to 176 °C | CC(=O)O[C@@H]1OCC[C@@H]1NC(=O)[C@H](Cc1ccccc1)NC(=O)OCc1ccccc1 |
| 170 °C | Nc1cc(CO)cc(S(N)(=O)=O)c1Oc1ccccc1 |
| 337 to 340 °C | O=C(O)c1ccc2c(c1)S(=O)(=O)c1ccccc1C(=O)N2 |
| 218 to 219 °C | O=C(O)Cc1nc(-c2ccc(Cl)cc2)oc1-c1ccoc1 |
| 150 to 154 °C | ON=C1CCC(c2ccc(Cl)cc2)c2ccccc21 (centres undefined) |
| 135 to 140 °C | COCC1(CC(=O)O)OCC(=O)c2c1[nH]c1ccccc21 (centres undefined) |
| 230 °C | Cc1nc(Cl)c2c(c1O)COC2c1ccccc1 (centres undefined) |
| 188 °C | CC1(c2ccccc2)Cc2c3c(c(Cl)c(Cl)c2C1=O)OC(C(=O)O)C3 (centres undefined) |
| 195 to 196 °C | CCCc1nc2cccc(C(=O)OC)c2n1Cc1ccc(-c2ccccc2-c2nnn[nH]2)cc1 |
| 232 to 233 °C | CC(C)c1nc(Cc2ccccc2)c2c(c1O)COC2 |
| 94 to 96 °C | CC(C)(C)OC(=O)N1CCC(Nc2ncc3c(n2)-c2ccccc2C(c2ccc(Cl)c(Cl)c2)C3)CC1 (centres undefined) |
| 65 to 66 °C | N#CN(Cc1ccccc1)c1ccccn1 |
| 185 to 186 °C | FC(F)(F)c1ccc2nc3c(nc2c1)-c1cccc2cccc-3c12 |

| melting point | Compound |
| --- | --- |
| 230 °C | COC(=O)c1ccccc1NC(=O)N1CCc2cc(S(=O)(=O)N3CCN(c4cccc(Cl)c4)CC3)ccc21 |
| 118 to 120 °C | COc1ccc(C(=CC#N)c2cccc([N+](=O)[O-])c2)cc1OC |
| 89 to 90 °C | CCOC(=O)Cc1c(C)nn(-c2ccccn2)c1-c1ccccc1 |
| 67 to 69 °C | COc1cc(NC(=O)c2cccc(CCc3cc(Nc4ccccc4)n[nH]3)c2)cc(OC)c1OC |
| 188 °C | CC(C)S(=O)(=O)Nc1cccc(C=C2c3ccccc3CCc3ccccc32)c1 |
| 140 to 141 °C | COC(=O)c1ccccc1NC(=O)NCc1ccccc1 |
| 207 to 208 °C | Cc1cc(=O)n2c3c(cc(C(OCc4ccccc4)(C(F)(F)F)C(F)(F)F)cc13)CC2 |
| 228 to 230 °C | Cn1c2ccc(C=O)cc2c2nc3ccccc3nc21 |
| 234 °C | COc1ccc(N(C)c2nc(N)nc3[nH]c4ccccc4c23)cc1 |
| 223 to 225 °C | O=c1[nH]c(=Cc2ccc(OCc3ccccc3)cn2)c(=O)[nH]c1=CCc1ccccc1 |
| 160 to 169 °C | CN(C)c1nc(=O)c2ccccc2n1Cc1ccc(F)cc1 |
| 145 to 148 °C | Cc1ccccc1C(=O)Nc1ccc(C(=O)N2Cc3ccccc3Sc3ccccc32)cc1 |
| 168 to 169 °C | CC1Cc2ccccc2CN(CCC(N)=O)C1=O (centres undefined) |
| 174 to 175 °C | COc1ccc(NC(=O)c2ccccc2)cc1NCc1ccc2c(c1)OCCO2 |
| 69 °C | CC(C)(C)OC(=O)C(CNC(=O)c1ccc(O)cc1)NC(=O)OCc1ccccc1 (centres undefined) |
| 243 to 245 °C | CC(N)(C=CP(=O)(O)O)CCCc1ccc(Sc2cccc(OCc3ccccc3)c2)cc1Cl (centres undefined) |
| 62 to 64 °C | CNC(=O)[C@@H]1C[C@@H](OCc2ccccc2)CN1S(=O)(=O)c1ccc(Cl)c(CBr)c1Cl |
| 131 to 132 °C | CCOC(=O)C(=NO)c1ccc(Oc2ccccc2)cc1 |
| 229 °C | CC(C)(CO)NS(=O)(=O)c1cccc(NC(=O)c2cnn3c(C(F)F)cc(-c4ccc(Cl)cc4)nc23)c1 |
| 58 to 60 °C | Cc1cccc(C(O)(c2cccc(C)c2)c2cccc(-c3ccc4ccccc4c3)c2)c1 |
| 211 to 212 °C | COc1ccc(N2C(=O)[C@H](O)[C@@H]2c2ccccc2)cc1 |
| 117 °C | Cc1ccc(C=Cc2ccccc2)cc1 |
| 203 to 204 °C | CC(=O)Nc1ccc(-c2c(Cl)c(CCl)nc3sc4c(c23)CCN(Cc2ccccc2)C4)cc1 |
